Values of other authors as cited in patent publication US20230000073A1, “A COMPOSITION FOR ACTIVATING PLANT'S NATURAL DEFENSE MECHANISMS TO EXTEND THE SHELF LIFE AND METHODS THEREOF” (GREENPOD LABS PRIVATE LIMITED, priority 2019, published 2023).
Entries after “also recorded” stand apart in the source; their conditions may differ. Where two headings read alike, the source gives them in different places.

What was measured:
[1] = tested on: Watermelon
[2] = tested on: Kiwifruit
[3] = tested on: Banana
[4] = tested on: Fresh-cut Chestnut
[5] = tested on: Tomato
[6] = tested on: Sweet cherry
[7] = tested on: Orange
[8] = tested on: Strawberry
[9] = tested on: Apple

In the case of `O=C(O)c1ccccc1O` [SA, 2-hydroxybenzoic acid], the “Reported results (effects of SA)” value [1] is given as “Increase in GPX, APX, CAT, SOD & GR activity,”, the “Reported results (effects of SA)” value [2] is given as “Inhibition of ethylene production, ripening &; also recorded: decay control” and the “Reported results (effects of SA)” value [3] is given as “Decrease in fruit softening pulp/peel ratio, reducing sugar content,”. The “Reported results (effects of SA)” value [4] was “Delayed discoloration, maintained edible quality”, the “Reported results (effects of SA)” value [5] was “Development of red color, regulation of ACS genes expression” and the “Reported results (effects of SA)” value [6] was “direct antifungal activity”. For the same compound, the “Reported results (effects of SA)” value [7] was “SOD, GR, APX & DHAR activity & ASA/DHASA”, the “Reported results (effects of SA)” value [8] was “Decay, Ripenings, weight loss reduction” and the “Reported results (effects of SA)” value [9] was “Decreased ethylene, LOX activity, MDA content, DI,”. For the same compound, the “Reported results (effects of SA)” value ([9]; combined with microbial antagonist) was “Enchaned the biological efficacy of antagonist”.
